Measured values: patent US9302999B2, “Substituted triazoles as herbicides” (E. I. DU PONT DE NEMOURS AND COMPANY, priority 2012, dated 2016)

Legend:
Assay type in all cases: in vivo
[1] = tested on: morningglory (Ipomoea spp.); test: Test A pre-/postemergence: morningglory
Method in brief: (§1)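 Compounds, formulated with surfactant in non-phytotoxic solvent, were applied as a directed soil spray preemergence and as postemergence sprays to 2–10 cm, one- to two-leaf seedlings grown in loam soil blended with sand; visual injury, 0–100, assessed ~10 days post-treatment against untreated controls.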

rice (Oryza sativa) = test: Test B flooded paddy: rice; settings: Flood; 250 g ai/ha; applied to paddy water at 2-leaf stage; visually evaluated after 13 to 15 days
Method in brief: (§2)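 Plants were grown to the 2-leaf stage, then pots were flooded to 3 cm above the soil and compounds were applied directly into the paddy water. Water depth was held for the whole test; after 13 to 15 days in a greenhouse, injury was visually rated against untreated controls (0 = no effect, 100 = complete control).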

[2] = tested on: wheat (Triticum aestivum); test: Test A pre-/postemergence: wheat
Method in brief: as §1

[3] = tested on: barnyardgrass (Echinochloa crus-galli); test: Test A pre-/postemergence: barnyardgrass
Method in brief: as §1

[4] = tested on: velvetleaf (Abutilon theophrasti); test: Test A pre-/postemergence: velvetleaf
Method in brief: as §1

[5] = tested on: foxtail, giant (giant foxtail, Setaria faberii); test: Test A pre-/postemergence: foxtail, giant
Method in brief: as §1

corn (Zea mays) = test: Test A pre-/postemergence: corn
Method in brief: as §1

[6] = tested on: ducksalad (Heteranthera limosa); test: Test B flooded paddy: ducksalad; settings: Flood; 250 g ai/ha; applied to paddy water at 2-leaf stage; visually evaluated after 13 to 15 days
Method in brief: as §2

[7] = tested on: sedge, umbrella (small-flower umbrella sedge Cyperus difformis); test: Test B flooded paddy: sedge, umbrella; settings: Flood; 250 g ai/ha; applied to paddy water at 2-leaf stage; visually evaluated after 13 to 15 days
Method in brief: as §2

[8] = tested on: barnyardgrass (Echinochloa crus-galli); test: Test B flooded paddy: barnyardgrass; settings: Flood; 250 g ai/ha; applied to paddy water at 2-leaf stage; visually evaluated after 13 to 15 days
Method in brief: as §2

[9] = tested on: pigweed (Amaranthus retroflexus); test: Test A pre-/postemergence: pigweed
Method in brief: as §1

[10] = tested on: crabgrass, large (large crabgrass, Digitaria sanguinalis); test: Test A pre-/postemergence: crabgrass, large
Method in brief: as §1

[11] = Postemergence, 125 g ai/ha, 0 to 100 scale, 0 is no effect, 100 is complete control
[12] = Postemergence, 500 g ai/ha, visual rating on 0 to 100 scale (0 no effect, 100 complete control), approximately ten days
[13] = Preemergence, 125 g ai/ha, 0 to 100 scale (0 no effect, 100 complete control)
[14] = Preemergence, 500 g ai/ha, 0 to 100 scale, 0 is no effect, 100 is complete control
[15] = Preemergence, 125 g ai/ha, 0 to 100 scale where 0 is no effect and 100 is complete control
[16] = Preemergence, 500 g ai/ha, 0 to 100 scale (0 no effect, 100 complete control)

Cc1nn(-c2ccnc(F)c2)nc1C(=O)c1cccc(C(F)(F)F)c1 [Compound 3]
Morningglory plant response rating [1, 11]: 30 | Morningglory plant response rating [1, 12]: 100 | Plant response rating, Morningglory [1, 13]: 0 | Plant response rating, Morningglory [1, 14]: 50 | Plant response rating, Rice (0 to 100 scale, 0 is no effect, 100 is complete control) (rice (Oryza sativa)): 0 | Wheat plant response rating [2, 11]: 30 | Wheat plant response rating [2, 12]: 40 | Plant response rating, Wheat [2, 13]: 0 | Plant response rating, Wheat [2, 14]: 40 | Barnyardgrass plant response rating [3, 11]: 30 | Barnyardgrass plant response rating [3, 12]: 50 | Plant response rating, Barnyardgrass [3, 13]: 10 | Plant response rating, Barnyardgrass [3, 14]: 50 | Velvetleaf plant response rating [4, 11]: 50 | Velvetleaf plant response rating [4, 12]: 60 | Plant response rating, Velvetleaf [4, 13]: 0 | Plant response rating, Velvetleaf [4, 14]: 10 | Foxtail, Giant plant response rating [5, 11]: 30 | Foxtail, Giant plant response rating [5, 12]: 90 | Plant response rating, Foxtail, Giant [5, 13]: 90 | Plant response rating, Foxtail, Giant [5, 14]: 100 | Corn plant response rating (corn (Zea mays); [11]): 20 | Corn plant response rating (corn (Zea mays); [12]): 30 | Plant response rating, Corn (corn (Zea mays); [13]): 0 | Plant response rating, Corn (corn (Zea mays); [14]): 10 | Plant response rating, Ducksalad (0 to 100 scale, 0 is no effect, 100 is complete control) [6]: 0 | Plant response rating, Sedge, Umbrella (0 to 100 scale, 0 is no effect, 100 is complete control) [7]: 0 | Plant response rating, Barnyardgrass (0 to 100 scale, 0 is no effect, 100 is complete control) [8]: 0 | Pigweed plant response rating [9, 11]: 90 | Pigweed plant response rating [9, 12]: 100 | Plant response rating, Pigweed [9, 13]: 70 | Plant response rating, Pigweed [9, 14]: 100 | Crabgrass, Large plant response rating [10, 11]: 40 | Crabgrass, Large plant response rating [10, 12]: 90 | Plant response rating, Crabgrass, Large [10, 13]: 90 | Plant response rating, Crabgrass, Large [10, 14]: 100

CC(C)c1nn(-c2ccc(F)cc2)nc1Cc1cccc(C(F)(F)F)c1 [Compound 150]
Plant response rating, Morningglory [1, 11]: 0 | Morningglory plant response rating [1, 12]: 0 | Plant response rating, Morningglory [1, 15]: 0 | Plant response rating, Morningglory [1, 16]: 0 | Plant response rating, Rice (0 to 100 scale, 0 is no effect, 100 is complete control) (rice (Oryza sativa)): 0 | Plant response rating, Wheat [2, 11]: 0 | Wheat plant response rating [2, 12]: 0 | Plant response rating, Wheat [2, 15]: 0 | Plant response rating, Wheat [2, 16]: 0 | Plant response rating, Barnyardgrass [3, 11]: 0 | Barnyardgrass plant response rating [3, 12]: 0 | Plant response rating, Barnyardgrass [3, 15]: 0 | Plant response rating, Barnyardgrass [3, 16]: 0 | Plant response rating, Velvetleaf [4, 11]: 0 | Velvetleaf plant response rating [4, 12]: 10 | Plant response rating, Velvetleaf [4, 15]: 0 | Plant response rating, Velvetleaf [4, 16]: 0 | Plant response rating, Foxtail, Giant [5, 11]: 0 | Foxtail, Giant plant response rating [5, 12]: 0 | Plant response rating, Foxtail, Giant [5, 15]: 0 | Plant response rating, Foxtail, Giant [5, 16]: 0 | Plant response rating, Corn (corn (Zea mays); [11]): 0 | Corn plant response rating (corn (Zea mays); [12]): 10 | Plant response rating, Corn (corn (Zea mays); [15]): 0 | Plant response rating, Corn (corn (Zea mays); [16]): 0 | Plant response rating, Ducksalad (0 to 100 scale, 0 is no effect, 100 is complete control) [6]: 0 | Plant response rating, Sedge, Umbrella (0 to 100 scale, 0 is no effect, 100 is complete control) [7]: 0 | Plant response rating, Barnyardgrass (0 to 100 scale, 0 is no effect, 100 is complete control) [8]: 20 | Plant response rating, Pigweed [9, 11]: 10 | Pigweed plant response rating [9, 12]: 50 | Plant response rating, Pigweed [9, 15]: 0 | Plant response rating, Pigweed [9, 16]: 0 | Plant response rating, Crabgrass, Large [10, 11]: 0 | Crabgrass, Large plant response rating [10, 12]: 20 | Plant response rating, Crabgrass, Large [10, 15]: 0 | Plant response rating, Crabgrass, Large [10, 16]: 0

O=C(c1ccnc(C(F)(F)F)c1)c1nn(-c2ccc(F)cc2)nc1F [Compound 158]
Plant response rating, Morningglory [1, 11]: 0 | Morningglory plant response rating [1, 12]: 10 | Plant response rating, Morningglory [1, 15]: 0 | Plant response rating, Morningglory [1, 16]: 0 | Plant response rating, Rice (0 to 100 scale, 0 is no effect, 100 is complete control) (rice (Oryza sativa)): 75 | Plant response rating, Wheat [2, 11]: 0 | Wheat plant response rating [2, 12]: 0 | Plant response rating, Wheat [2, 15]: 0 | Plant response rating, Wheat [2, 16]: 0 | Plant response rating, Barnyardgrass [3, 11]: 0 | Barnyardgrass plant response rating [3, 12]: 0 | Plant response rating, Barnyardgrass [3, 15]: 0 | Plant response rating, Barnyardgrass [3, 16]: 0 | Plant response rating, Velvetleaf [4, 11]: 0 | Velvetleaf plant response rating [4, 12]: 0 | Plant response rating, Velvetleaf [4, 15]: 0 | Plant response rating, Velvetleaf [4, 16]: 0 | Plant response rating, Foxtail, Giant [5, 11]: 0 | Foxtail, Giant plant response rating [5, 12]: 0 | Plant response rating, Foxtail, Giant [5, 15]: 0 | Plant response rating, Foxtail, Giant [5, 16]: 0 | Plant response rating, Corn (corn (Zea mays); [11]): 0 | Corn plant response rating (corn (Zea mays); [12]): 20 | Plant response rating, Corn (corn (Zea mays); [15]): 0 | Plant response rating, Corn (corn (Zea mays); [16]): 0 | Plant response rating, Ducksalad (0 to 100 scale, 0 is no effect, 100 is complete control) [6]: 0 | Plant response rating, Sedge, Umbrella (0 to 100 scale, 0 is no effect, 100 is complete control) [7]: 0 | Plant response rating, Barnyardgrass (0 to 100 scale, 0 is no effect, 100 is complete control) [8]: 0 | Plant response rating, Pigweed [9, 11]: 10 | Pigweed plant response rating [9, 12]: 80 | Plant response rating, Pigweed [9, 15]: 0 | Plant response rating, Pigweed [9, 16]: 0 | Plant response rating, Crabgrass, Large [10, 11]: 0 | Crabgrass, Large plant response rating [10, 12]: 20 | Plant response rating, Crabgrass, Large [10, 15]: 0 | Plant response rating, Crabgrass, Large [10, 16]: 0

CCc1nn(-c2cccc(C(F)(F)F)c2)nc1Cc1cccc(C(F)(F)F)c1 [Compound 143]
Plant response rating, Morningglory [1, 11]: 50 | Morningglory plant response rating [1, 12]: 90 | Plant response rating, Morningglory [1, 15]: 0 | Plant response rating, Morningglory [1, 16]: 0 | Plant response rating, Rice (0 to 100 scale, 0 is no effect, 100 is complete control) (rice (Oryza sativa)): 30 | Plant response rating, Wheat [2, 11]: 10 | Wheat plant response rating [2, 12]: 40 | Plant response rating, Wheat [2, 15]: 0 | Plant response rating, Wheat [2, 16]: 10 | Barnyardgrass plant response rating [3, 11]: 20 | Barnyardgrass plant response rating [3, 12]: 50 | Plant response rating, Barnyardgrass [3, 15]: 30 | Plant response rating, Barnyardgrass [3, 16]: 90 | Plant response rating, Velvetleaf [4, 11]: 40 | Velvetleaf plant response rating [4, 12]: 80 | Plant response rating, Velvetleaf [4, 15]: 0 | Plant response rating, Velvetleaf [4, 16]: 20 | Foxtail, Giant plant response rating [5, 11]: 80 | Foxtail, Giant plant response rating [5, 12]: 100 | Plant response rating, Foxtail, Giant [5, 15]: 90 | Plant response rating, Foxtail, Giant [5, 16]: 100 | Corn plant response rating (corn (Zea mays); [11]): 40 | Corn plant response rating (corn (Zea mays); [12]): 50 | Plant response rating, Corn (corn (Zea mays); [15]): 0 | Plant response rating, Corn (corn (Zea mays); [16]): 20 | Plant response rating, Ducksalad (0 to 100 scale, 0 is no effect, 100 is complete control) [6]: 0 | Plant response rating, Sedge, Umbrella (0 to 100 scale, 0 is no effect, 100 is complete control) [7]: 75 | Plant response rating, Barnyardgrass (0 to 100 scale, 0 is no effect, 100 is complete control) [8]: 40 | Plant response rating, Pigweed [9, 11]: 100 | Pigweed plant response rating [9, 12]: 100 | Plant response rating, Pigweed [9, 15]: 100 | Plant response rating, Pigweed [9, 16]: 100 | Crabgrass, Large plant response rating [10, 11]: 80 | Crabgrass, Large plant response rating [10, 12]: 100 | Plant response rating, Crabgrass, Large [10, 15]: 90 | Plant response rating, Crabgrass, Large [10, 16]: 100
